Consider 4 molecules from patent US11519911B2, “ALX receptor ligands define a biochemical endotype for inflammation-based diseases” (THE BRIGHAM AND WOMEN'S HOSPITAL, INC., priority 2017, dated 2022).

The target of assay [1] is T1, ALX/FPR2 receptors (ALX) (Homo sapiens, UniProt P25090).
T1 sequence (P25090 1-351): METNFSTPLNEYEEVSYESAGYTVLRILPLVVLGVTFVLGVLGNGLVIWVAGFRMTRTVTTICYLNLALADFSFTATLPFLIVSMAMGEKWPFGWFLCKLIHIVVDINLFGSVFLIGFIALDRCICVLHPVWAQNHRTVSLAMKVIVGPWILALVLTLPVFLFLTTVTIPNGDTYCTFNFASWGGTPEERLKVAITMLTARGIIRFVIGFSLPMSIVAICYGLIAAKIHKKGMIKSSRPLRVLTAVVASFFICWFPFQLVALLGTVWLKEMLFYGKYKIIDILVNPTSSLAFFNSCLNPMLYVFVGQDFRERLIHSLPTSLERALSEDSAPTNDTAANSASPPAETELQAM
In words: ALX-dependent in vitro reporter assay: IL-8 production by A549 cells expressing human ALX receptor (ELISA). It is filed as cell-based. Further details: expressed in transfected cells; host or cells: A549 human lung epithelial cells, stably transfected. The procedure:
FIG. 6 A-D. SAA and 15-epi-LXA4 signaling via ALX receptors regulates production of the neutrophil chemoattractant IL-8 A549 human epithelial cells expressing human ALX receptors (A549^hALX) were exposed to BALF from HD, NSA, or SA subjects (24 h, 37° C., 5% CO2) and IL-8 levels were measured in the cell-free supernatant by ELISA (see Methods). (A) Mean levels of LXA4, 15-epi-LXA4 and SAA in BALF from n=15 subjects used for A549^hALX cell incubations are shown in stacked bar graphs and the relative proportions are noted in pie charts. (B) IL-8 production by A549^hALX cells was measured after incubation with saline control or SAA (2.5 ng/ml or 10 ng/ml) for 24 hours. (C) IL-8 production by A549^hALX cells was measured after 24 hours of exposure to BALF from HD (n=3), NSA (n=6) or SA (n=5) and is expressed as an increase relative to saline controls. Incubations with BALF without an increase in IL-8 production relative to saline control were assigned a value of zero. (D) A549^hALX epithelial cells were exposed to BALF from subjects with endogenous levels that were LXA4^highSAA^low (n=5) or LXA4^lowSAA^high (n=6) followed by exposure to exogenous 15-epi-LXA4 (100 nM). % Inhibition of IL-8 production after 15-epi-LXA4 exposure was calculated. *p<0.05, ****p<0.001 by (B) one-way ANOVA (C) Kruskal-Wallis test and (D) Mann-Whitney test. ALX, airway lipoxin A4 receptor; LXA4, lipoxin A4; 15-epi-LXA4, 15-epimer lipoxin A4; SAA, serum amyloid A; HD, healthy donors; NSA, non-severe asthma; SA, severe asthma; IL-8, interleukin-8; BALF, bronchoalveolar lavage fluid.
To determine the functional relationship for these ALX receptor ligands, we next turned to an ALX-dependent in vitro reporter assay that we have previously qualified in chronic obstructive pulmonary disease (18). A549 lung epithelial cells were stably transfected to express the human ALX/FPR2 receptor (hALX). […]
A549 transfected to stably express the human ALX receptor were used (as in (18)). […] IL-8 levels in the supernatants were measured by ELISA (R&D). […]

In assay [2] the target is T1, ALX/FPR2 receptors (ALX). The conditions noted are these: high affinity cognate receptors; reference (16); cited from earlier work.
Assay [3] can be described thus: BALF ALX ligand levels after a single dose of intramuscular triamcinolone in asthma subjects. It counts as in vivo, human. The conditions noted are these: measured 3 to 6 weeks after, SA or NSA subjects. The procedure: Subjects 13 years of age and older with asthma and healthy control subjects were recruited between November 2012 and February 2015 by seven geographically dispersed, research centers in the USA. European Respiratory Society/American Thoracic Society guidelines were used to categorize subjects as SA or NSA (48). Control subjects were individuals who reported general health and were non-smokers with no history of lung disease, atopic disease or allergic rhinitis. BAL was performed with three 50 mL aliquots of warm saline, and BALF were recovered by hand suction. Subjects received intramuscular triamcinolone (1 mg/kg up to a maximum dose of 40 mg) and some subjects agreed to undergo a second bronchoscopy 3 to 6 weeks later and BAL samples were collected in the same manner. BAL cells were enumerated and differential leukocyte counts determined. Cell-free BALF supernatant was divided into several aliquots. One aliquot of BALF (1 ml) was directly mixed with iced methanol (2 ml, for 1:2, vol/vol) before storing at −80° C. The other aliquots were directly stored at −80° C. […]
LXA4 and 15-epi-LXA4 levels in the BALF were measured by ELISA (Neogen, Lexington, Ky.). […] SAA and ANXA1 levels were measured by ELISA in aliquots of BALF stored in the absence of methanol (SAA: Abazyme, Needham, Mass.; ANXA1: Cloud-Clone, Houston, Tex.). […]

“Also recorded” adds a separate entry of the source.

In the case of 15-epimer lipoxin A4 [15-epi-LXA4], in assay [1] (exogenous 15-epi-LXA4 100 nM, cells exposed to BALF), the “Inhibition of IL-8 production by A549^hALX cells conditioned with BALF” value is reported as “inhibited A549^hALX cell IL-8 production”. For the same molecule, the “Inhibition of IL-8 production by A549^hALX cells conditioned with BALF from LXA4^lowSAA^high subjects” value in assay [1] (exogenous 15-epi-LXA4 100 nM, compared with LXA4^highSAA^low BALF) is “maximal inhibition of IL-8 production”. The Kd (usually the free concentration of one partner at which half of the binding sites on the other are occupied at equilibrium, for simple one-to-one binding) in assay [2] was ~1 nM.
Turning to `CCCCC[C@H](O)/C=C/C=C\C=C\C=C\[C@@H](O)[C@@H](O)CCCC(=O)O` [LXA4, Lipoxin A4], in assay [2], the Kd is ~1 nM.
For the molecule `C[C@]12C=CC(=O)C=C1CC[C@H]1[C@@H]3C[C@@H](O)[C@](O)(C(=O)CO)[C@@]3(C)C[C@H](O)[C@@]12F` [triamcinolone], in assay [3], the “Change in BALF levels of LXA4, 15-epi LXA4 and SAA” value is “did not result in discernible changes; also recorded: not significantly altered”.

B1: SAA: acute phase protein, pro-inflammatory ALX peptide ligand; recombinant human SAA (Peprotech) (protein, UniProt P0DJI8 19-122, looked up)
Serum amyloid A-1 protein: RSFFSFLGEAFDGARDMWRAYSDMREANYIGSDKYFHARGNYDAAKRGPGGAWAAEVITDARENIQRFFGHGAEDSLADQAANEWGRSGKDPNHFRPAGLPEKY
As to B1, in assay [1] (recombinant human SAA 0-10 ng/ml, 24 h, vs saline control), the “IL-8 production by A549^hALX cells” value is “concentration-dependent (0-10 ng/ml) increase in IL-8 production”.
